US20210378240A1, “OXETANYLPHENOXYQUINOLINES AND ANALOGUES” (Bayer Aktiengesellschaft, priority 2018, published 2021)

Method: In table 1, the logP values were determined in accordance with EEC Directive 79/831 Annex V.A8 by HPLC (High Performance Liquid Chromatography) on a reversed-phase column (C 18), using the method to described below:
temperature: 40° C.; mobile phases: 0.1% aqueous formic acid and acetonitrile; linear gradient from 10% acetonitrile to 95% acetonitrile;
Calibration was carried out using unbranched alkan-2-ones (comprising 3 to 16 carbon atoms) with known logP values (determination of the logP values by the retention times using linear interpolation between two successive alkanones). lambda-max-values were determined using UV-spectra from 200 nm to 400 nm and the peak values of the chromatographic signals.

Row | SMILES | chromatographic logP
1 | Cc1nc2c(F)c(F)ccc2cc1Cc1ccccc1Br [3-(2-bromobenzyl)-7,8-difluoro-2-methylquinoline] | 4.26
2 | O=[N+]([O-])c1cccc(F)c1OC1COC1 [3-(2-fluoro-6-nitrophenoxy)oxetane] | 2
3 | Nc1cccc(F)c1OC1COC1 [3-fluoro-2-(oxetan-3-yloxy)-aniline, 3-fluoro-2-(oxetan-3-yloxy)aniline] | 1.32
4 | Cc1nc2c(F)c(F)ccc2cc1Oc1ccccc1C1OCC1(C)C (centres unmarked) [I.01, 3-[2-(3,3-dimethyloxetan-2-yl)phenoxy]-7,8-difluoro-2-methyl-quinoline] | 4.44
5 | Cc1nc2c(F)c(F)ccc2cc1Oc1ccccc1C1COC1 [I.02, 7,8-difluoro-2-methyl-3-[2-(oxetan-3-yl)phenoxy]quinoline] | 3.33
6 | Cc1nc2c(F)c(F)ccc2cc1Oc1ccccc1N1CC2(COC2)C1 [I.03, 7,8-difluoro-2-methyl-3-[2-(2-oxa-6-azaspiro[3.3]heptan-6-yl)phenoxy]quinoline] | 3.48
7 | Cc1nc2c(F)c(F)ccc2cc1Cc1ccccc1C1(C)COC1 [I.04, 7,8-difluoro-2-methyl-3-[2-(3-methyloxetan-3-yl)benzyl]quinoline] | 3.47
8 | Cc1nc2c(F)c(F)ccc2cc1Nc1cccc(F)c1CN1CC(F)(F)C1 [I.10, N-{2-[(3,3-difluoroazetidin-1-yl)methyl]-3-fluorophenyl}-7,8-difluoro-2-methylquinolin-3-amine] | 4.33
9 | Cc1nc2c(F)c(F)ccc2cc1Cc1ccccc1C#CC1COC1 [I.14, 7,8-difluoro-2-methyl-3-[2-(oxetan-3-ylethynyl)benzyl]quinoline] | 3.66
10 | Cc1nc2c(F)c(F)ccc2cc1Nc1cccc(F)c1OC1COC1 [I.15, 7,8-difluoro-N-[3-fluoro-2-(oxetan-3-yloxy)phenyl]-2-methylquinolin-3-amine] | 3.28
11 | Cc1nc2c(F)c(F)ccc2cc1Oc1ccccc1C(O)C(C)(C)CO (centres unmarked) [IIa.01, 1-{2-[(7,8-difluoro-2-methylquinolin-3-yl)oxy]phenyl}-2,2-dimethylpropane-1,3-diol] | 2.96
12 | Cc1nc2c(F)c(F)ccc2cc1Oc1cccc(I)c1C(O)C(C)(C)CO (centres unmarked) [IIa.02, 1-{2-[(7,8-difluoro-2-methylquinolin-3-yl)oxy]-6-iodophenyl}-2,2-dimethylpropane-1,3-diol] | 3.57
13 | O=Cc1ccccc1Nc1cnc2c(F)cccc2c1 [IV.01, 2-[(8-fluoroquinolin-3-yl)amino]benzaldehyde] | 2.88
14 | O=Cc1c(F)cccc1Oc1cnc2ccccc2c1 [IV.02, 2-fluoro-6-(quinolin-3-yloxy)benzaldehyde] | 2.43
15 | Cc1nc2ccccc2cc1Oc1cccc(F)c1C=O [IV.03, 2-fluoro-6-[(2-methylquinolin-3-yl)oxy]benzaldehyde] | 2.32
16 | Cc1nc2c(F)c(F)ccc2cc1Oc1ccccc1C=O [IV.04, 2-[(7,8-difluoro-2-methylquinolin-3-yl)oxy]benzaldehyde] | 3.21
17 | Cc1nc2c(F)c(F)ccc2cc1Oc1cccc(F)c1C=O [IV.05, 2-[(7,8-difluoro-2-methylquinolin-3-yl)oxy]-6-fluorobenzaldehyde] | 3.1
18 | Fc1cccc(Br)c1CN1CC(F)(F)C1 [IX_C, 1-(2-bromo-6-fluorobenzyl)-3,3-difluoroazetidine] | 1.89
19 | CC1(c2ccccc2CBr)COC1 [XIII.01, 3-[2-(bromomethyl)phenyl]-3-methyloxetane] | 2.73
20 | CC1(c2ccccc2CO)COC1 [XIV.01, [2-(3-methyloxetan-3-yl)phenyl]methanol] | 1.3
